Test results: the NIST ThermoML archive (doi:10.1016/j.jct.2012.07.007)

Tests used:
[1] = xn = mol fraction of the nth substance listed; conditions: 101 kPa, Liquid; for speed of sound: Linear variable-path acoustic interferometer; for mass density: Vibrating tube method
[2] = excess molar enthalpy (molar enthalpy of mixing); xn = mol fraction of the nth substance listed; conditions: 298.15 K, 101 kPa, Liquid, 2-drop calorimetry

Cc1ccccn1 [2-methylpyridine] + CCn1cc[n+](C)c1.F[B-](F)(F)F
[1]
Conditions | mass density, 293.15 K [kg/m3] | mass density, 298.15 K [kg/m3] | mass density, 303.15 K [kg/m3] | mass density, 308.15 K [kg/m3] | speed of sound, 293.15 K [m/s] | speed of sound, 298.15 K [m/s] | speed of sound, 303.15 K [m/s] | speed of sound, 308.15 K [m/s]
x2 = 0.1219 | 1013.9 | 1010.93 | 1006.33 | 1002.14 | 1438.3 | 1415.5 | 1397.7 | 1379.6
x2 = 0.1776 | 1043.45 | 1040.53 | 1036.16 | 1032.07 | 1457.5 | 1434.8 | 1417.2 | 1400
x2 = 0.2341 | 1071.82 | 1068.69 | 1064.53 | 1060.5 | 1478.2 | 1454.8 | 1438.3 | 1422
x2 = 0.2778 | 1092.45 | 1089.12 | 1085.1 | 1081.18 | 1494.2 | 1471 | 1454.4 | 1439.1
x2 = 0.3209 | 1111.76 | 1108.07 | 1104.33 | 1100.37 | 1509.3 | 1487.7 | 1470.8 | 1455.6
x2 = 0.3721 | 1133.09 | 1129.16 | 1125.57 | 1121.65 | 1527.3 | 1506.4 | 1490.5 | 1475.5
x2 = 0.4232 | 1152.77 | 1148.64 | 1145.21 | 1141.21 | 1544.8 | 1525.5 | 1509 | 1495
x2 = 0.4727 | 1170.31 | 1166.05 | 1162.72 | 1158.68 | 1560 | 1542.7 | 1525.2 | 1513.6
x2 = 0.5217 | 1186.07 | 1181.95 | 1178.63 | 1174.56 | 1572.9 | 1557.7 | 1540.6 | 1530.3
x2 = 0.5742 | 1201.42 | 1197.47 | 1194.21 | 1190.05 | 1585.5 | 1572.9 | 1555.3 | 1545.9
x2 = 0.6217 | 1214.02 | 1210.21 | 1206.93 | 1202.85 | 1595.6 | 1585 | 1567.5 | 1559
x2 = 0.6724 | 1226.14 | 1222.71 | 1219.36 | 1215.15 | 1603.9 | 1596.5 | 1577.8 | 1571.1
x2 = 0.7228 | 1236.96 | 1233.88 | 1230.44 | 1226.27 | 1609.8 | 1605.1 | 1586.2 | 1581.5
x2 = 0.7725 | 1246.69 | 1243.95 | 1240.41 | 1236.19 | 1614.7 | 1611.1 | 1592.1 | 1589
x2 = 0.8216 | 1255.54 | 1252.96 | 1249.32 | 1245.1 | 1618.6 | 1615.5 | 1596.9 | 1593.8
x2 = 0.8741 | 1264.27 | 1261.73 | 1257.98 | 1253.82 | 1621.8 | 1618.7 | 1600.8 | 1597.4
x2 = 0.9218 | 1271.82 | 1269.01 | 1265.26 | 1261.08 | 1624.6 | 1619.8 | 1603.5 | 1598.2
x2 = 0.9319 | 1273.41 | 1270.5 | 1266.74 | 1262.57 | 1625.3 | 1619.6 | 1604 | 1598.3

[2]
Conditions | excess molar enthalpy [kJ/mol]
x2 = 0.1132 | -0.109
x2 = 0.1578 | -0.148
x2 = 0.2087 | -0.194
x2 = 0.2467 | -0.225
x2 = 0.2976 | -0.266
x2 = 0.3245 | -0.286
x2 = 0.3789 | -0.326
x2 = 0.4235 | -0.356
x2 = 0.4876 | -0.395
x2 = 0.5123 | -0.408
x2 = 0.5734 | -0.437
x2 = 0.6145 | -0.448
x2 = 0.6634 | -0.453
x2 = 0.7145 | -0.436
x2 = 0.7856 | -0.399
x2 = 0.8265 | -0.36
x2 = 0.8723 | -0.304
x2 = 0.9226 | -0.209

Cc1cccnc1 [3-methylpyridine] + CCn1cc[n+](C)c1.F[B-](F)(F)F
[1]
Conditions | mass density, 293.15 K [kg/m3] | mass density, 298.15 K [kg/m3] | mass density, 303.15 K [kg/m3] | mass density, 308.15 K [kg/m3] | speed of sound, 293.15 K [m/s] | speed of sound, 298.15 K [m/s] | speed of sound, 303.15 K [m/s] | speed of sound, 308.15 K [m/s]
x2 = 0.1217 | 1024.56 | 1020.46 | 1016.63 | 1011.73 | 1479.9 | 1465 | 1443.4 | 1427
x2 = 0.1729 | 1050.57 | 1046.54 | 1042.83 | 1038.13 | 1494.7 | 1480.8 | 1459.7 | 1443.9
x2 = 0.2415 | 1082.96 | 1079.02 | 1075.3 | 1070.72 | 1514 | 1499.7 | 1481.3 | 1465.7
x2 = 0.2711 | 1096.07 | 1092.1 | 1088.37 | 1084.01 | 1521.8 | 1507.9 | 1490.3 | 1474.6
x2 = 0.3214 | 1117.16 | 1113.25 | 1109.49 | 1105.3 | 1535.6 | 1520.5 | 1504.5 | 1488.8
x2 = 0.3732 | 1137.38 | 1133.44 | 1129.62 | 1125.73 | 1548.8 | 1532.8 | 1519.4 | 1503.3
x2 = 0.4219 | 1154.95 | 1151.03 | 1147.27 | 1143.6 | 1560.1 | 1543.2 | 1532.2 | 1517
x2 = 0.4718 | 1171.59 | 1167.7 | 1163.94 | 1160.52 | 1571.8 | 1554.4 | 1544.1 | 1530
x2 = 0.5209 | 1186.68 | 1182.83 | 1179.2 | 1175.87 | 1581.6 | 1564 | 1556 | 1541.8
x2 = 0.5723 | 1201.17 | 1197.38 | 1193.82 | 1190.64 | 1591.9 | 1574.7 | 1566.4 | 1554.1
x2 = 0.6221 | 1214.02 | 1210.25 | 1206.88 | 1203.74 | 1600.3 | 1583.7 | 1576.1 | 1565.4
x2 = 0.6731 | 1226.02 | 1222.36 | 1219.18 | 1215.94 | 1607.5 | 1593 | 1585.5 | 1576.2
x2 = 0.7212 | 1236.43 | 1232.83 | 1229.78 | 1226.48 | 1614.1 | 1601.4 | 1592.8 | 1585.3
x2 = 0.7708 | 1246.34 | 1242.76 | 1239.81 | 1236.4 | 1619.1 | 1608.8 | 1598.7 | 1593.7
x2 = 0.8224 | 1255.77 | 1252.24 | 1249.34 | 1245.81 | 1623.7 | 1614.9 | 1604.2 | 1599.5
x2 = 0.8713 | 1264.1 | 1260.53 | 1257.58 | 1253.89 | 1627.2 | 1619.3 | 1607.5 | 1603
x2 = 0.9119 | 1270.62 | 1266.99 | 1263.93 | 1260.07 | 1629 | 1621.6 | 1609 | 1603.9
x2 = 0.9317 | 1273.7 | 1270 | 1266.86 | 1262.91 | 1629.8 | 1621.8 | 1609.2 | 1603.2

[2]
Conditions | excess molar enthalpy [kJ/mol]
x2 = 0.1256 | -0.136
x2 = 0.1676 | -0.171
x2 = 0.2089 | -0.205
x2 = 0.2578 | -0.245
x2 = 0.2976 | -0.272
x2 = 0.3387 | -0.294
x2 = 0.3898 | -0.32
x2 = 0.4367 | -0.341
x2 = 0.4876 | -0.361
x2 = 0.5223 | -0.369
x2 = 0.599 | -0.376
x2 = 0.6345 | -0.372
x2 = 0.689 | -0.36
x2 = 0.7356 | -0.339
x2 = 0.7909 | -0.298
x2 = 0.8479 | -0.244
x2 = 0.889 | -0.197
x2 = 0.9109 | -0.165
